Data on 14 compounds can be found in BindingDB's records for doi:10.1016/j.bioorg.2016.09.004 (North-West University, 2016).

In test [1] the target is T1, Amine oxidase [flavin-containing] A (Homo sapiens, UniProt P21397).
T1 sequence (P21397 whole entry): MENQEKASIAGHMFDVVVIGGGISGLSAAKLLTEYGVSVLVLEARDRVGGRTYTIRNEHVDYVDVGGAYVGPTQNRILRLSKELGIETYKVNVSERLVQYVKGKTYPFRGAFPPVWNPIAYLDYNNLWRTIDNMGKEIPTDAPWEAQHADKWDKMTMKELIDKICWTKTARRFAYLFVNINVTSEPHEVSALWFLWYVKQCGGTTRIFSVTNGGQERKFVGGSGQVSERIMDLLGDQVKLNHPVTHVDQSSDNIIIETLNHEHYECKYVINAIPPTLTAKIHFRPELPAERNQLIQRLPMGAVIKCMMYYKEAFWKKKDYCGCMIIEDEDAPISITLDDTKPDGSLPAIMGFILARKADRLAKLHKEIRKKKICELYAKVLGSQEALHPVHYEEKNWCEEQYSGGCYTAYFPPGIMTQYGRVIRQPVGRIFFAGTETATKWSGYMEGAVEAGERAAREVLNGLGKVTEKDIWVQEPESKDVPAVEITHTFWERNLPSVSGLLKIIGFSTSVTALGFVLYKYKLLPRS
The experiment in a line: MAO-A and MAO-B Fluorescence Assay. The following applies: pH 7.4. How it is done:
(§1) Recombinant human MAO-A and MAO-B were used for these studies and kynuramine served as enzyme substrate. Kynuramine is oxidised by both MAO isoforms to yield 4-hydroxyquinoline as ultimate product. For the enzyme reactions MAO-A (0.0075 mg/mL) or MAO-B (0.015 mg/mL), the substrate (50 μM) and the test inhibitors (0.003-100 μM) were combined and incubated for 20 min. For this purpose potassium phosphate buffer (pH 7.4, 100 mM) served as solvent. At endpoint the reactions were alkalinised (NaOH) and the fluorescence intensity of 4-hydroxyquinoline was measured (kex = 310 nm; kem = 400 nm).

For test [2], the target named is T2, Amine oxidase [flavin-containing] B (Homo sapiens, UniProt P27338).
T2 sequence (P27338 whole entry): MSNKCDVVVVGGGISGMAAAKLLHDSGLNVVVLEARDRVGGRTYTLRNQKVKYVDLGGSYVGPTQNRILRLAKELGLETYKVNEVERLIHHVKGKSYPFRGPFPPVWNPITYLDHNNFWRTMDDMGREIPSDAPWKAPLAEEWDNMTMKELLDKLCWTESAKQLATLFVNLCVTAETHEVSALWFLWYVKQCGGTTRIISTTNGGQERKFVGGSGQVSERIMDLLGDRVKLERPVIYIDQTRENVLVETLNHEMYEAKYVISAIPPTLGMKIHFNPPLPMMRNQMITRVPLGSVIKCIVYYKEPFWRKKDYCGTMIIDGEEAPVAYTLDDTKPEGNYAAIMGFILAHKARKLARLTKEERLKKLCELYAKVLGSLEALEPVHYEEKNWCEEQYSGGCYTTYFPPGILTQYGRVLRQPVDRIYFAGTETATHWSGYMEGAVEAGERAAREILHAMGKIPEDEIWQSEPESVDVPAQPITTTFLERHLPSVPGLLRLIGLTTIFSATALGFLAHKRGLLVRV
The experiment in a line: MAO-A and MAO-B Fluorescence Assay. The following applies: pH 7.4. How it is done: as §1

As usually defined, the IC50 is the concentration that inhibits the measured activity by half. Low values mean inhibition by little substance, high ones a need for much substance. Turning to `COc1ccc2c(c1)C/C(=C\c1ccco1)C2=O` [(2E)-2-(Furan-2-ylmethylidene)-5-methoxy-2,3-dihydro-1Hinden-1-one (11g)], the figures for the concentration for half-maximal inhibition (IC50) in test [1] and in test [2] were 2330 nM and 394 nM, respectively.
For `COc1ccc2c(c1)C/C(=C\c1ccccn1)C2=O` [(2E)-5-Methoxy-2-(pyridin-2-ylmethylidene)-2,3-dihydro-1Hinden-1-one (11d)], the concentration for half-maximal inhibition (IC50) in test [1] came out at 302 nM; in test [2], 112 nM.
Regarding `O=C1/C(=C/c2ccsc2)Cc2ccccc21` [(2E)-2-(Thiophen-3-ylmethylidene)-2,3-dihydro-1H-inden-1-one (11k)], the IC50 in test [1] worked out at 1510 nM; in test [2], 114 nM.
As to `O=C1/C(=C/c2ccco2)Cc2ccccc21`, the half-inhibitory concentration (IC50) is 1200 nM in test [1] and 889 nM in test [2].
For `COc1ccc2c(c1)C/C(=C\c1cccnc1)C2=O` [(2E)-5-Methoxy-2-(pyridin-3-ylmethylidene)-2,3-dihydro-1Hinden-1-one (11b)], in that order: 8550 nM and 338 nM.
In the same order, the values of `O=C1/C(=C/c2ccccn2)Cc2ccccc21` [(2E)-2-(Pyridin-2-ylmethylidene)-2,3-dihydro-1H-inden-1-one (11c)] are 853 nM and 1530 nM.
In test [2], `COc1ccc2c(c1)C/C(=C\C1CCCCC1)C2=O` [(2E)-2-(Cyclohexylmethylidene)-5-methoxy-2,3-dihydro-1Hinden-1-one (11m)] showed a half-inhibitory concentration (IC50) of 139 nM.
Turning to `COc1ccc2c(c1)C/C(=C\c1cccs1)C2=O` [(2E)-5-Methoxy-2-(thiophen-2-ylmethylidene)-2,3-dihydro-1H-inden-1-one (11i)], the IC50 in test [1] was 5180 nM; in test [2], 114 nM.
For `O=C1/C(=C/C2CCCCC2)Cc2ccccc21` [(2E)-2-(Cyclohexylmethylidene)-2,3-dihydro-1H-inden-1-one (11l)], in that order: 5210 nM and 229 nM.
For `O=C1/C(=C/c2cccs2)Cc2ccccc21` [(2E)-2-(Thiophen-2-ylmethylidene)-2,3-dihydro-1H-inden-1-one (11h)], in that order: 1330 nM and 418 nM.
For `COc1ccc2c(c1)C/C(=C\c1ccc(Br)o1)C2=O` [(2E)-2-[(5-Bromofuran-2-yl)methylidene]-5-methoxy-2,3-dihydro-1H-inden-1-one (11o)], in that order: 183 nM and 4.4 nM.
Consider `O=C1/C(=C/c2cccnc2)Cc2ccccc21` [(2E)-2-(Pyridin-3-ylmethylidene)-2,3-dihydro-1H-inden-1-one (11a)], for which the IC50 in test [1] is 61 nM; in test [2] it was 1270 nM.
In the same order, the values of `O=C1/C(=C/c2cccnc2Cl)Cc2ccccc21` [(2E)-2-[(2-Chloropyridin-3-yl)methylidene]-2,3-dihydro-1Hinden-1-one (11e)] are 471 nM and 465 nM.
In the same order, the values of `COc1ccc2c(c1)C/C(=C\c1ccc(C)o1)C2=O` [(2E)-5-Methoxy-2-[(5-methylfuran-2-yl)methylidene]-2,3-dihydro-1H-inden-1-one (11n)] are 4730 nM and 26 nM.
